Assays:
[1] = test system: T. cruzi intracellular amastigotes in H9c2 cells; assay: Rate-of-Kill (RoK) high-content imaging assay, amastigotes per cell (AM/CELL) and curve descriptors; type: cell-based, Trypanosoma cruzi; parameters: key to ME_24h / ME_48h / ME_72h: % reduction in parasite burden (cidal response); t50pct_MCC50 / t50pct_Cmax: unit not given here; settings: for ME_24h: 24h; for ME_48h: 48h; for ME_72h: 72h; for tlag_Cmax / t50pct_Cmax / t50%_Cmax: at Cmax; for ME_24h (%): maximum effect at 24 h; for ME_24h (%) / ME_48h (%) / ME_72h (%): RoK assay; for ME_48h (%): maximum effect at 48 h; for ME_72h (%): maximum effect at 72 h; for ME 24h (maximum effect at 24 hours, intracellular amastigotes): maximum percentage of parasite burden reduction reached by any concentration
Outline: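 Readouts at each time point are amastigotes per cell and host nuclei count (cytotoxicity), from DRAQ5 high-content imaging. Infection: trypomastigotes on H9c2 at MOI 8 for 18 h. Dosing was 5 μM single point or 11 points, 1/3 steps from 50 μM. Effect scaled between 4 h infected and uninfected controls.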

TcCYP51 = settings: formerly reported; cited from earlier work

Row | Structure (SMILES) | ME_24h ([1]; figure 5) | ME_48h ([1]; figure 5) | ME_72h ([1]; figure 5) | MCCE ([1]; RoK curve descriptor) [µM] | AM/CELL NORM ([1]; Time 4, sheet figure 4 A) | AM/CELL NORM ([1]; Time 24, sheet figure 4 A) | AM/CELL NORM ([1]; Time 48, sheet figure 4 A) | AM/CELL NORM ([1]; Time 72, sheet figure 4 A) | tlag_Cmax [1] [h] | t50pct_Cmax ([1]; figure 5) | tlag_Cmax ([1]; figure 5) | t50pct_MCC50 ([1]; at MCC50, figure 5) | tlag_MCC50 ([1]; at MCC50, figure 5) | MCCE ([1]; figure 5) | ME_24h (%) [1] [%] | ME_48h (%) [1] [%] | ME_72h (%) [1] [%] | ME 24h (maximum effect at 24 hours, intracellular amastigotes) [1] [%] | CYP51 pIC50 (TcCYP51) | MCC50 ([1]; RoK curve descriptor) [µM] | further results
1 | Cc1nn(C)c(Cl)c1CN(Cc1cccnc1)Cc1ccsc1 [TCMDC-143477] | -46.0078 | -102.792 | -13.578 | 0.6 | -6.323 | -46.0078 | -102.792 | -72.3369 | 48.0 | 72 | 48 | 72 | 72 | 0.6173 | -46.0 | -102.8 | -13.6 | -46.0078 | 7.2 | – | MCC50 ([1]; figure 5): 50 µM
2 | Cc1ccc(C)c(OC2CCN(C(=O)C(C)n3ccnc3)CC2)c1 (centres unmarked) [TCMDC-143481] | -18.0648 | -41.8218 | 55.4241 | 0.6 | -1.4032 | -18.0648 | -41.8218 | 1.753 | 48.0 | 72 | 48 | 72 | 48 | 0.6173 | -18.1 | -41.8 | 55.4 | -18.0648 | 7 | 5.6 | t50%_MCC50 ([1]; at MCC50): 72.0 h; tlag_MCC50 ([1]; at MCC50): 48.0 h; MCC50 ([1]; figure 5, in µM): 5.556
3 | Cc1[nH]c2ccccc2c(=O)c1Cc1c(C)[nH]c2ccccc2c1=O [TCMDC-143490] | 37.5404 | 50.8304 | 51.8782 | 0.01 | 13.7757 | 37.5404 | 50.8304 | 51.8782 | 4.0 | 48 | 4 | 48 | 4 | 0.007621 | 37.5 | 50.8 | 51.9 | 37.5404 | < 4 | 50.0 | t50%_Cmax [1]: 48.0 h; t50%_MCC50 ([1]; at MCC50): 48.0 h; tlag_MCC50 ([1]; at MCC50): 4.0 h; MCC50 ([1]; figure 5): 50 µM
4 | CNc1cc(C)nc(C2CN(C(=O)c3n[nH]c4ccccc34)CCO2)c1 (centres unmarked) [TCMDC-143494] | 32.4456 | 71.1038 | 67.5793 | 1.9 | 7.648 | 27.7451 | 71.1038 | 67.5793 | 4.0 | 48 | 4 | 48 | 4 | 1.852 | 32.5 | 71.1 | 67.6 | 32.4456 | < 4 | 50.0 | t50%_Cmax [1]: 48.0 h; t50%_MCC50 ([1]; at MCC50): 48.0 h; tlag_MCC50 ([1]; at MCC50): 4.0 h; MCC50 ([1]; figure 5): 50 µM
5 | Cc1nccn1C1CCCN(C(=O)c2cc3c(F)cccc3s2)C1 (centres unmarked) [TCMDC-143498] | 32.6582 | 54.1455 | 68.2465 | 1.9 | – | – | – | – | 8.0 | 48 | 8 | 72 | 33.6 | 1.852 | 32.7 | 54.2 | 68.3 | 52.5921 | 4.3 | 4.6 | AM/CELL NORM ([1]; Time 4, figure 4 A): 21.9505; AM/CELL NORM ([1]; Time 24, figure 4 A): 50.5271; AM/CELL NORM ([1]; Time 48, figure 4 A): 69.4926; AM/CELL NORM ([1]; Time 72, figure 4 A): 61.0854; t50%_Cmax [1]: 48.0 h; t50%_MCC50 ([1]; at MCC50): 72.0 h; tlag_MCC50 ([1]; at MCC50): 24.0 h; MCC50 ([1]; figure 5, in µM): 13.7037
6 | Cc1cc2cncn2c(C2CCCCN2C(=O)c2cccs2)n1 (centres unmarked) [TCMDC-143500] | -103.212 | -13.304 | 53.284 | 0.2 | 8.792 | -103.212 | -13.304 | 50.5477 | 24.0 | 72 | 24 | 72 | 24 | 0.2058 | -103.2 | -13.3 | 53.3 | -103.212 | 7 | 16.7 | t50%_Cmax [1]: 72.0 h; t50%_MCC50 ([1]; at MCC50): 72.0 h; tlag_MCC50 ([1]; at MCC50): 24.0 h; MCC50 ([1]; figure 5, in µM): 16.6667
7 | Cn1cncc1CN1CCC2(CC1)COC(Cc1ccccc1)C2 (centres unmarked) [TCMDC-143502] | -3.518 | 29.7799 | 64.8887 | 1.9 | 12.5806 | -3.518 | -12.3342 | 16.2947 | 48.0 | 72 | 48 | 72 | 24 | 1.852 | -3.5 | 29.8 | 64.9 | -3.518 | 6 | 5.6 | t50%_MCC50 ([1]; at MCC50): 72.0 h; tlag_MCC50 ([1]; at MCC50): 24.0 h; MCC50 ([1]; figure 5, in µM): 5.556
8 | CN(Cc1ccc(C(N)=O)cc1)C(c1ccc(F)cc1)c1cccnc1 (centres unmarked) [TCMDC-143504] | -95.1621 | -135.708 | 0.6882 | 0.6 | 2.577 | -143.385 | -163.001 | -44.3312 | – | 72 | 48 | 72 | 72 | 0.6173 | -95.2 | -135.7 | 0.7 | -95.1621 | 7 | – | MCC50 ([1]; figure 5): 50 µM
9 | O=C(C1CCCCC1)N1CCN(c2nnc(-c3ccccc3)c3ccccc23)CC1 [TCMDC-143511] | -40.3218 | 29.1145 | 87.9479 | 1.9 | -0.05415 | -40.3218 | 2.791 | 87.9479 | 24.0 | 72 | 24 | 72 | 24 | 1.852 | -40.3 | 29.1 | 88.0 | -40.3218 | < 4 | 5.6 | t50%_Cmax [1]: 72.0 h; t50%_MCC50 ([1]; at MCC50): 72.0 h; tlag_MCC50 ([1]; at MCC50): 24.0 h; MCC50 ([1]; figure 5, in µM): 5.556
10 | CN(C(=O)Nc1ccc2c(c1)CCN(C1CCC1)CC2)c1ccc(C#N)cc1.Cl [TCMDC-143526] | -107.476 | -30.6533 | 30.9234 | 1.9 | 4.08 | -107.476 | -30.6533 | 30.9234 | 24.0 | 72 | 24 | 72 | 72 | 1.852 | -107.5 | -30.7 | 30.9 | -107.476 | < 4 | – | MCC50 ([1]; figure 5): 50 µM
11 | CC(CNS(=O)(=O)c1ccc(OC(F)F)cc1)c1ccc(NC(=O)c2ccncc2)cc1 (centres unmarked) [TCMDC-143535] | -92.8433 | -11.1799 | 45.5869 | 0.2 | 3.544 | -92.8433 | -15.4132 | 37.7082 | 24.0 | 72 | 24 | 72 | 72 | 0.2058 | -92.8 | -11.2 | 45.6 | -92.8433 | 7.3 | – | MCC50 ([1]; figure 5): 50 µM

Reference: PMC8318231, “Rate-of-Kill (RoK) assays to triage large compound sets for Chagas disease drug discovery: Application to GSK Chagas Box” (PLoS Neglected Tropical Diseases, 2021)
